Laboratory results published in US9795677B2, “Method for reducing damage caused by free radicals” (Original BioMedicals Co., Ltd, priority 2012, dated 2017).

How the values were obtained:
NMRI mice = experiment: Acute radiation protection in irradiated mice (WBC number); format: in vivo, mouse; conditions: 8Gy; amifostine 6.25 mg/kg i.v. 30 min before irradiation; 30 days after treatment
Experimental: Efficacy Result: In animal study, 30-day old NMRI mice weighing 20 to 30 g were tested for acute radiation protection. For radiation control group, mice were given 1, 4, and 8 Gy irradiation in 10 minutes, and for the standard treatment group, FDA-approved amifostine (6.25 mg/kg) was injected intravenously, and 30 minutes later the animals were given 8 Gy irradiation in 10 minutes. The 30 mins duration design is based on the short half-life of amifostine. A-01 indicates FePA with a formulation ratio of PEG-b-PGA:FeCl2.4H2O:amifostine=4:1:1 (w:w:w). The animals in the test group A-01 were administered intravenously with 37.5 mg/kg A-01 (containing the same amount of amifostine as used in the standard treatment group), and 120 minutes post injection, the animals were given 8 Gy radiation in 10 minutes. WBC number and survival rates were analyzed 30 days after treatment.

[1] = system: mouse embryonic liver cells (BNLCL.2); experiment: Comet Assay of UV-irradiated cells (DNA damage); format: cell-based; conditions: BNLCL.2 cells, UVB 100 J·m-2; treatment given 30 minutes or 2 hr before UV irradiation; API and FeP 40 folds, FePA 20 folds dilution with PBS
Experimental: UV irradiation of the cells was used in this experiment to simulate the effects of radiation on normal cells, and the results were evaluated by Comet Assay. Comet Assay is a fast, sensitive and convenient method for examining DNA damage and is widely used in studying DNA damage caused by radiation, examining DNA crosslink, evaluating genotoxicity of drugs and identifying cell apoptosis, etc. […]
The mouse embryonic liver cells (BNLCL.2) were inoculated onto a 35 mm culture dish at the density of 3*10^5 cell/mL and cultured for at least 20 hours before subjected to the test. […] The treated cells were then collected with a scraper, counted, and centrifuged at 1,200 rpm for 5 minutes. […]
The bottle containing LM agarose was placed in 95° C. water for 5 minutes with loosed cap and then transferred to a 37° C. water bath for at least 20 minutes. […] The resulting images were analyzed using the epifluorescence microscope (the maximum excitation and emission wavelength of SYBR®Green I are 494 nm and 521 nm, respectively.) The fluorescence filter was also adjusted accordingly for efficient lighting) 200×.

[2] = cited from earlier work

Compound: NCCCNCCSP(=O)(O)O [Amifostine]
- WBC (NMRI mice): 3.04-3.80 1000/cm^3
- average percentage of damaged DNA in the tail of the Comet (% TDNA) compared with the positive control group (UV) [1]: significantly reduced
- amifostine remaining after i.v. injection ([2]; 6 minutes after i.v. injection): 10%
- distribution half-life ([2]; patients): less than 1 minute
- elimination half-life ([2]; patients): 8 min
